IC50 and EC50 data for 20 molecules are collected here from patent US11091428B2 (HAPLOGEN GMBH, priority 2016, dated 2021).

The target of one assay is T1, PLA2G16 (Homo sapiens, UniProt P53816).
T1 construct: Hexa-His (N); made in house; host or cells: E. coli BL21(DE3)
T1 sequence (P53816 1-162): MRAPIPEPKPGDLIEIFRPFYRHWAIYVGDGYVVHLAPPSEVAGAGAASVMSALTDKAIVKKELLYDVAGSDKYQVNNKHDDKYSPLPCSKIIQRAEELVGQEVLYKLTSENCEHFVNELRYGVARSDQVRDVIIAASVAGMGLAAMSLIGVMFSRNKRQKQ
The assay is described as follows: Enzyme activity assay for PLA2G16 (Red/Green BODIPY PC-A2 fluorescence). In kind it is biochemical. The conditions noted are these: His-tagged PLA2G16, 4 min pre-incubation, 2 nM to 50 μM; read-out: IC50 values of the compounds determined in the enzyme activity assay for PLA2G16. From the text:
A cDNA for PLA2G16(NM_007069) was custom-synthesized by Genscript (Piscataway, USA) and inserted into a pET-based bacterial expression vector [Moffatt, B. A. and Studier, F. W. (1986) J. Mol. Biol. 189, 113-130; Rosenberg, A. H., Lade, B. N., Chui, D., Lin, S., Dunn, J. J., and Studier, F. W. (1987) Gene 56, 125-135], enabling the expression of N-terminally Hexa-His-tagged PLA2G16. E. coli BL21(DE3) (Agilent) were transformed with pET-His-PLA2G16according to the manufacturer's instructions and plated on Carbenicillin-containing agar plates (final concentration: 100 μg/mL). A single clone was in occulated in 100 mL LB medium supplemented with 100 μg/mL Carbenicillin and the in occulated culture was grown at 37° C. overnight in a rotary shaker. On the next day, the bacterial culture was diluted in LB medium supplemented with 100 μg/mL Carbenicillin (30 mL overnight culture in 800 mL total culture volume). Bacteria were grown at 37° C. until the OD600 reached 0.6. Gene expression was induced by addition of 1 mM isopropyl-β-D-thiogalactopyranosid (IPTG) for 2 h at 18° C. Subsequently, bacteria were harvested by centrifugation (15 min; 10,000×g; 4° C.) and frozen at −80° C. The bacterial pellet was resuspended in Buffer A (50 mM Tris/HCl pH 7.5, 500 mM NaCl, 5% glycerol, 5 mM β-Mercaptoethanol and 1 mM PMSF) and lysed by addition of 1 mg/mL lysozyme (Sigma Aldrich) and 100 μg/mL DNasel-(Roche). The sample was incubated at 30° C. for 30 min to allow lysis to occur. Then, the lysate was cleared by centrifugation (15,000×g, 15 min, 4° C.) and incubated with 1.5 mL Ni-NTA agarose suspension (Qiagen) for 60 min at 4° C. The Ni-NTA agarose was washed with 10 mL Buffer A. Bound protein was eluted by applying a manual gradient of Buffer A supplemented with increasing concentrations of imidazole (Sigma Aldrich; 25/50/75/100/250 mM). Purified fractions were analyzed by SDS-PAGE followed by Coomassie staining to assess the purity.
Activity of the protein was assessed as follows: Red/Green BODIPY® PC-A2 (Invitrogen, 1 mM in DMSO) was mixed with equal volumes of 1,2-Dioleoyl-sn-glycero-3-phosphocholine (DOPC; Sigma Aldrich, 10 mM in Ethanol) and 1,2-Dioleoyl-sn-glycero-3-phospho-rac-(1-glycerol) (DOPG; Sigma Aldrich, 10 mM in Ethanol) and 0.5 volumes of Cholesterol (CHOL; Sigma Aldrich, 10 mM in Ethanol) and vortexed for 5 s. The mixture (Red/Green BODIPY® PC-A2/DOPC/DOPG/CHOL) was diluted 1:91.4 in activity assay buffer (50 mM Tris/HCl pH 8.5, 100 mM NaCl) using a small-orifice pipette tip under constant vortexing. In the following, this preparation will be referred to as the “substrate solution”.
In order to evaluate their inhibitory potential, compounds were dissolved at 10 mM concentration in DMSO and directly spotted into assay plates (Corning, Cat. No. 3576) using acoustic liquid transfer (Labcyte Echo 525). Each compound was spotted at increasing concentrations, ranging from 2 nM to 50 μM (concentration in the final assay volume). 50 μl of PLA2G16 enzyme solution (diluted in activity buffer, supplemented with 5 mM L-Glutathione; Sigma Aldrich) was pre-incubated with compounds for 4 min., followed by addition of 50 μl of substrate solution. Fluorescence was recorded immediately after substrate addition for a total time of 10 min. using a SpectraMax M5 multimode reader (Excitation wavelength: 480 nm, emission wavelength: 530 nm). The relative increase of fluorescence over time is referred to as the enzyme activity. Half-maximal inhibitory concentrations (IC50) were derived by non-linear regression analysis using the drc package in R (R Development. Core Team, 2005).

Assay [1] has as its system picornaviruses (CVB1, HRV-A2, HRV-A23, EV-68). The assay is described as follows: Anti-picornavirus cytopathic effect (CPE) reduction assay on HeLa H1 cells. The assay is classed as cell-based. Conditions: Enterovirus B, HeLa H1, 48 h, HeLa H1 cells, 48 h, category from averaging the EC50 values from four picornaviruses (CVB1, HRV-A2, HRV-A23, EV68); read-out: EC50 values of the compounds determined in the anti-picornavirus assay. On the procedure:
The antiviral activity of selected compounds was tested using a cytopathic effect (CPE) reduction assay on HeLa H1 cells (ATCC CRL-1958). Briefly, cells were seeded in 96-well dishes (2×10^4 cells/well) in DMEM medium (Life technologies) supplemented with 10% FBS and PenStrep solution (100 U/mL Penicillin and 100 μg/mL streptomycin) and incubated at 37° C., 5% CO2 ovemight. The next day, cells were pre-treated with serial dilutions of the compound in DMEM medium supplemented with 2% FBS and PenStrep for 2 h at 37° C., 5% CO2. Next, cells were infected with virus (CVB1, HRV-A2, HRV-A23, EV-68) at an multiplicity of infection (MOI) which results in a complete virus-induced CPE within 2 days in control wells (infected and vehicle-treated). After 48 h, supematants were aspirated and 50 μl/well of CellTiterBlue reagent (Promega) diluted 1:5 in DMEM+2% FBS, was added to the cells. Plates were returned to the incubator and allowed to develop for 1.5 h. After that, plates were equilibrated to RT and subsequently, fluorescence was recorded (Excitation wavelength: 560 nm; emission wavelength: 590 nm) using a SpectraMax M5 multimode plate reader. Viability of cells was calculated according to the formula: V=(RFUCpd−RFUVeh/(RFUM−RFUVeh), where RFUCpd refers to infected and compound-treated cells, RFUVeh to infected and vehicle-treated cells and RFUM to uninfected and vehicle treated cells. Half-maximal effective concentrations (EC50) were calculated by non-linear regression analysis using the drc package in R (R Development. Core Team, 2005). EC50 categories as presented in Table 2 were calculated by averaging the EC50 values from four picornaviruses (CVB1, HRV-A2, HRV-A23, EV68).

With `O=C(NC1CN(C(=O)C2CCC2)C1)C(=O)[C@H]1CCC(=O)N1Cc1ccccc1` [FP 318, 2-[(2R)-1-Benzyl-5-oxopyrrolidin-2-yl]-N-(1-cyclobutanecarbonylazetidin-3-yl)-2-oxoacetamide], on PLA2G16, the half-inhibitory concentration (IC50) was less than 1 µM. In addition, in assay [1], the EC50 was 1 to 10 µM.

Regarding `CCC(C(=O)C(=O)NCc1cccc(Cl)c1)N(C=O)c1ccccc1OC` (stereo not shown) [FP 12, N-[(3-Chlorophenyl)methyl]-3-[N-(2-methoxyphenyl)formamido]-2-oxopentanamide], the IC50 at PLA2G16 was less than 1 µM. Also, the EC50 in assay [1] is 1 to 10 µM.

On to `O=C(NCCc1ccncc1)C(=O)C1CCC(=O)N1Cc1ccccc1` (stereo not shown) [FP 226, 2-(1-Benzyl-5-oxopyrrolidin-2-yl)-2-oxo-N-[2-(pyridin-4-yl)ethyl]acetamide], for which the IC50 on PLA2G16 was less than 1 µM. Besides, the concentration for a half-maximal effect (EC50) in assay [1] lay within 1 to 10 µM.

On to `O=C(NCC1(CO)CC1)C(=O)C1CCC(=O)N1Cc1ccc(Cl)cc1` (stereo not shown) [FP 276, 2-{1-[(4-Chlorophenyl)methyl]-5-oxopyrrolidin-2-yl}-N-{[1-(hydroxymethyl)cyclopropyl]-methyl}-2-oxoacetamide], for which the IC50 on PLA2G16 is less than 1 µM. Further, in assay [1], the concentration giving a half-maximal response (EC50) is 1 to 10 µM.

`C[C@H]1CC(=O)N(Cc2ccccc2)[C@H]1C(=O)C(=O)NCC1CC1` (single isomer, unassigned) [FP 337]: the half-maximal inhibitory concentration (IC50) at PLA2G16 was less than 1 µM. Besides, the EC50 in assay [1] is less than 1 µM.

For the molecule `CC(C(=O)C(=O)NCC1CCCCC1)N(C=O)c1cc[nH]c(=O)c1` (stereo not shown) [FP 192, N-(Cyclohexylmethyl)-2-oxo-3-[N-(2-oxo-1,2-dihydropyridin-4-yl)formamido]butanamide], on PLA2G16, the half-inhibitory concentration (IC50) is less than 1 µM. Besides, in assay [1], the EC50 is greater than 10 µM.

As to `O=C(NCC1CC1)C(=O)C1CCC(=O)N1c1ccccc1` (stereo not shown) [FP 264, N-(Cyclopropylmethyl)-2-oxo-2-(5-oxo-1-phenylpyrrolidin-2-yl)acetamide], at PLA2G16, the IC50 fell in the range of 1 to 10 µM. Further, the EC50 in assay [1] is greater than 10 µM.

For the molecule `Cc1ccc(CN2C(=O)CCC2C(=O)C(=O)NC2CC2)cc1` (stereo not shown) [FP 270, N-Cyclopropyl-2-{1-[(4-methylphenyl)methyl]-5-oxopyrrolidin-2-yl}-2-oxoacetamide], the IC50 on PLA2G16 is less than 1 µM. Also, in assay [1], the EC50 is less than 1 µM.

With `CC(NC(=O)c1ccccc1)C(=O)C(=O)NCC1CC1` (stereo not shown) [FP 178, N-(Cyclopropylmethyl)-2-oxo-3-(phenylformamido)butanamide], the IC50 at PLA2G16 is less than 1 µM. Also, the EC50 in assay [1] fell in the range of 1 to 10 µM.

On to `COc1ccccc1N(C=O)C(C)C(=O)C(=O)NCCc1cccc(Cl)c1` (stereo not shown) [FP 97, N-[2-(3-Chlorophenyl)ethyl]-3-[N-(2-methoxyphenyl)formamido]-2-oxobutanamide], for which, on PLA2G16, the half-inhibitory concentration (IC50) was less than 1 µM. In addition, the EC50 in assay [1] was less than 1 µM.

As to `COc1ccccc1N(C=O)CCC(=O)C(=O)NCc1cccc(Cl)c1` [FP 115, N-[(3-Chlorophenyl)methyl]-4-[N-(2-methoxyphenyl)formamido]-2-oxobutanamide], the IC50 on PLA2G16 is less than 1 µM. For the same molecule, the EC50 in assay [1] lay within 1 to 10 µM.

`CC(=O)NCCCCCCNC(=O)C(=O)C1CCC(=O)N1Cc1ccc(Cl)cc1` (stereo not shown) [FP 330, 2-{1-[(4-Chlorophenyl)methyl]-5-oxopyrrolidin-2-yl}-N-(6-acetamidohexyl)-2-oxoacetamide]: the IC50 at PLA2G16 was less than 1 µM. Moreover, in assay [1], the EC50 lay within 1 to 10 µM.

In the case of `CC(C)[C@H]1CC(=O)N(Cc2ccccc2)[C@@H]1C(=O)C(=O)NC1CC1` (racemic) [FP 342, 2-[(2S,3R)-1-Benzyl-5-oxo-3-(propan-2-yl)pyrrolidin-2-yl]-N-cyclopropyl-2-oxoacetamide and 2-[(2R,3S)-1-benzyl-5-oxo-3-(propan-2-yl)pyrrolidin-2-yl]-N-cyclopropyl-2-oxoacetamide], on PLA2G16, the IC50 is less than 1 µM. Besides, the EC50 in assay [1] is less than 1 µM.

Regarding `CC(C(=O)C(=O)NCC1CC1)N(C=O)CC1CCN(C(=O)OC(C)(C)C)CC1` (stereo not shown) [FP 39, tert-Butyl 4-[(N-{1-[(cyclopropylmethyl)carbamoyl]-1-oxopropan-2-yl}formamido)methyl]piperidine-1-carboxylate], on PLA2G16, the half-inhibitory concentration (IC50) was 1 to 10 µM. In addition, the EC50 in assay [1] was greater than 10 µM.

Consider `CC(C)NC(=O)C(=O)C(C)N(C=O)CC(C)(C)C` (stereo not shown) [FP 29, 3-[N-(2,2-Dimethylpropyl)formamido]-2-oxo-N-(propan-2-yl)butanamide], for which the IC50 on PLA2G16 was less than 1 µM. Further, in assay [1], the EC50 lay in the range of 1 to 10 µM.

In the case of `O=C(NCCCc1nccs1)C(=O)C1CCC(=O)N1Cc1ccccc1` (stereo not shown) [FP 229, 2-(1-Benzyl-5-oxopyrrolidin-2-yl)-2-oxo-N-[3-(1,3-thiazol-2-yl)propyl]acetamide], the IC50 on PLA2G16 is less than 1 µM. Moreover, the EC50 in assay [1] is less than 1 µM.

`CC(C)OCCNC(=O)C(=O)[C@H]1CCC(=O)N1Cc1ccccc1` [FP 286, 2-[(2R)-1-Benzyl-5-oxopyrrolidin-2-yl]-2-oxo-N-[2-(propan-2-yloxy)ethyl]acetamide]: the concentration for half-maximal inhibition (IC50) on PLA2G16 is less than 1 µM. In addition, in assay [1], the EC50 lay in the range of 1 to 10 µM.

Turning to `CC(C(=O)C(=O)NCC1CC1)N(C=O)CC1CCN(C(=O)c2ccccc2)CC1` (stereo not shown) [FP 80, 3-{N[(1-Benzoylpiperidin-4-yl)methyl]formamido}-N-(cyclopropylmethyl)-2-oxobutanamide], at PLA2G16, the IC50 lay in the range of 1 to 10 µM. Further, the 50% effective concentration (EC50) in assay [1] is greater than 10 µM.

Consider `CC(C)CNC(=O)C(=O)C(C)N(C=O)CC(F)(F)F` (stereo not shown) [FP 46, N-(2-Methylpropyl)-2-oxo-3-[N-(2,2,2-trifluoroethyl)formamido]butanamide], for which the IC50 on PLA2G16 is less than 1 µM. Besides, the concentration giving a half-maximal response (EC50) in assay [1] lay in the range of 1 to 10 µM.

Regarding `CC(=O)N1CCC(CN(C=O)C(C)C(=O)C(=O)NCC2CCCCC2)CC1` (stereo not shown) [FP 79, 3-{N-[(1-Acetylpiperidin-4-yl)methyl]formamido}-N-(cyclohexylmethyl)-2-oxobutanamide], on PLA2G16, the IC50 was 1 to 10 µM. Besides, the EC50 in assay [1] is greater than 10 µM.
